The values below are quoted from earlier work in patent US11648213B2, “Transdermal therapeutic system containing asenapine” (LTS LOHMANN THERAPIE-SYSTEME AG, priority 2018, dated 2023).

For series [1] the following is noted: in vivo.
Series [2] concerns the target serotonin 5-HT2A receptors (Homo sapiens, UniProt P28223). Conditions: antagonist.

A value given as a limit tells only on which side of the number the result lay.

Chain of serotonin 5-HT2A receptors (P28223 whole entry): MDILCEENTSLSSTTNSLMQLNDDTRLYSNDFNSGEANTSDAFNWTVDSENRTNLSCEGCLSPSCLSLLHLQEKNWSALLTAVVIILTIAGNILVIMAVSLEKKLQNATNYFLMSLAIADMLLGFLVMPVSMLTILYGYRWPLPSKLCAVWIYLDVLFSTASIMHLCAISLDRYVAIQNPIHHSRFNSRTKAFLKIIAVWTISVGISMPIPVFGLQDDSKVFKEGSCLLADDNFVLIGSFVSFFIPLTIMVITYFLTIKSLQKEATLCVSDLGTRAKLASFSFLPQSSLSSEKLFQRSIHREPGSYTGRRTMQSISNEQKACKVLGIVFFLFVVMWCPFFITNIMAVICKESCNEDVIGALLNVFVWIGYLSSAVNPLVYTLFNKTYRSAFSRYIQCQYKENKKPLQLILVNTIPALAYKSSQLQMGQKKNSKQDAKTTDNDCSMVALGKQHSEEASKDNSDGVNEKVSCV

What is called bioavailability is the share of a dose that reaches the circulation, judged against a reference dose that is usually intravenous. As to `CN1C[C@H]2c3ccccc3Oc3ccc(Cl)cc3[C@@H]2C1` (relative stereo) [asenapine, (3aRS,12bRS)-rel-5-chloro-2,3,3a,12b-tetrahydro-2-methyl-1H-dibenz[2,3:6,7]oxepino[4,5-c]pyrrole], in series [1], the “Somnolence and anxiety (very common), share of the patients” value is at least 10%. Moreover, the “affinity to serotonin 5-HT2A receptors” value in series [2] is on record as “high affinity”. Moreover, where the note is “following sublingual administration, therapeutic doses”, the terminal disposition half-life was at least 24 h. Moreover, the bioavailability (if ingested) was under 2%.
